Assay results reported in ChEMBL document CHEMBL1255305, “Affinity of doripenem and comparators to penicillin-binding proteins in Escherichia coli and Pseudomonas aeruginosa” (Antimicrob Agents Chemother, 2008).
In brackets after ≈: the same amount, converted by molar mass. Activity calls are given as the source filed them. The calls are words filed in the database; no cut-off is given here.

Experiments:
[1] = Inhibition of Bocillin FL binding to PBP1A in Escherichia coli MC4100 membranes; assay type: cell membranes
[2] = Inhibition of Bocillin FL binding to PBP1B in Escherichia coli MC4100 membranes; assay type: cell membranes
[3] = Inhibition of Bocillin FL binding to PBP2 in Escherichia coli MC4100 membranes; assay type: cell membranes
[4] = Inhibition of Bocillin FL binding to PBP3 in Escherichia coli MC4100 membranes; assay type: cell membranes
[5] = Inhibition of Bocillin FL binding to PBP4 in Escherichia coli MC4100 membranes; assay type: cell membranes
[6] = Inhibition of Bocillin FL binding to PBP5 in Escherichia coli MC4100 membranes; assay type: cell membranes
[7] = Inhibition of Bocillin FL binding to PBP6 in Escherichia coli MC4100 membranes; assay type: cell membranes
Escherichia coli [8] = experiment: Antimicrobial activity against Escherichia coli MC4100 by CLSI protocol based broth microdilution method; assay type: functional
[9] = Inhibition of Bocillin FL binding to PBP1A in Pseudomonas aeruginosa PAO1 membranes
[10] = Inhibition of Bocillin FL binding to PBP1B in Pseudomonas aeruginosa PAO1 membranes
[11] = Inhibition of Bocillin FL binding to PBP2 in Pseudomonas aeruginosa PAO1 membranes
[12] = Inhibition of Bocillin FL binding to PBP3 in Pseudomonas aeruginosa PAO1 membranes
[13] = Inhibition of Bocillin FL binding to PBP4 in Pseudomonas aeruginosa PAO1 membranes
[14] = Inhibition of Bocillin FL binding to PBP5/6 in Pseudomonas aeruginosa PAO1 membranes
Pseudomonas aeruginosa [15] = experiment: Antimicrobial activity against Pseudomonas aeruginosa PAO1 by CLSI protocol based broth microdilution method; assay type: functional
[16] = Inhibition of Bocillin FL binding to PBP1A in Pseudomonas aeruginosa 27853 membranes
[17] = Inhibition of Bocillin FL binding to PBP1B in Pseudomonas aeruginosa 27853 membranes
[18] = Inhibition of Bocillin FL binding to PBP2 in Pseudomonas aeruginosa 27853 membranes
[19] = Inhibition of Bocillin FL binding to PBP3 in Pseudomonas aeruginosa 27853 membranes
[20] = Inhibition of Bocillin FL binding to PBP4 in Pseudomonas aeruginosa 27853 membranes
[21] = Inhibition of Bocillin FL binding to PBP5/6 in Pseudomonas aeruginosa 27853 membranes
Pseudomonas aeruginosa [22] = experiment: Antimicrobial activity against Pseudomonas aeruginosa 27853 by CLSI protocol based broth microdilution method; assay type: functional
Escherichia coli [23] = experiment: Induction of morphological changes in Escherichia coli MC4100 assessed as induction of sphere formation at antimicrobial MIC after 4 hrs by microscopy; assay type: functional, organism-based
Pseudomonas aeruginosa [24] = experiment: Induction of morphological changes in Pseudomonas aeruginosa 27853 assessed as increase in cell length at antimicrobial MIC after 240 mins by microscopy; assay type: functional, organism-based
Pseudomonas aeruginosa [25] = experiment: Induction of morphological changes in Pseudomonas aeruginosa 27853 assessed as increase in cell length at antimicrobial MIC after 60 mins by microscopy; assay type: functional, organism-based
Pseudomonas aeruginosa [26] = experiment: Induction of morphological changes in Pseudomonas aeruginosa 27853 assessed as induction of sphere formation at antimicrobial MIC after 60 mins by microscopy; assay type: functional, organism-based
Pseudomonas aeruginosa [27] = experiment: Induction of morphological changes in Pseudomonas aeruginosa 27853 assessed as induction of sphere formation at antimicrobial MIC after 240 mins by microscopy; assay type: functional, organism-based

Compound | IC50 [1] | IC50 [2] | IC50 [3] | IC50 [4] | IC50 [5] | IC50 [6] | IC50 [7] | MIC (Escherichia coli [8]) | IC50 [9] | IC50 [10] | IC50 [11] | IC50 [12] | IC50 [13] | IC50 [14] | IC50 [16] | IC50 [17] | IC50 [18] | IC50 [19] | IC50 [20] | IC50 [21] | further results
C[C@@H](O)[C@H]1C(=O)N2C(C(=O)O)=C(S[C@@H]3CN[C@H](C(=O)N(C)C)C3)[C@H](C)[C@H]12 [MEROPENEM] | 1.7 µg/mL (≈ 4.43 µM) | 1.3 µg/mL (≈ 3.39 µM) | 0.008 µg/mL (≈ 0.0209 µM) | 0.6 µg/mL (≈ 1.56 µM) | 0.02 µg/mL (≈ 0.0522 µM) | 4 µg/mL (≈ 10.4 µM) | 0.03 µg/mL (≈ 0.0782 µM) | 0.03 µg/mL (≈ 0.0782 µM) | 0.5 µg/mL (≈ 1.3 µM) | 0.5 µg/mL (≈ 1.3 µM) | 0.05 µg/mL (≈ 0.13 µM) | 0.08 µg/mL (≈ 0.209 µM) | 0.008 µg/mL (≈ 0.0209 µM) | 16 µg/mL (≈ 41.7 µM) | 0.6 µg/mL (≈ 1.56 µM) | 0.6 µg/mL (≈ 1.56 µM) | 0.06 µg/mL (≈ 0.156 µM) | 0.08 µg/mL (≈ 0.209 µM) | 0.02 µg/mL (≈ 0.0522 µM) | > 4 µg/mL | MIC (Pseudomonas aeruginosa [15]): 0.5 µg/mL (≈ 1.3 µM); MIC (Pseudomonas aeruginosa [22]): 0.25 µg/mL (≈ 0.652 µM); Activity (Escherichia coli [23]): Active; Activity (Pseudomonas aeruginosa [24]): Active; Activity (Pseudomonas aeruginosa [25]): Active
C[C@H]1[C@H](NC(=O)/C(=N\OC(C)(C)C(=O)O)c2csc(N)n2)C(=O)N1S(=O)(=O)O [AZTREONAM] | > 8 µg/mL | > 8 µg/mL | > 8 µg/mL | 0.03 µg/mL (≈ 0.0689 µM) | > 8 µg/mL | > 8 µg/mL | > 8 µg/mL | – | 2 µg/mL (≈ 4.59 µM) | 2 µg/mL (≈ 4.59 µM) | 16 µg/mL (≈ 36.7 µM) | 0.03 µg/mL (≈ 0.0689 µM) | 16 µg/mL (≈ 36.7 µM) | > 16 µg/mL | 2 µg/mL (≈ 4.59 µM) | 2 µg/mL (≈ 4.59 µM) | 4 µg/mL (≈ 9.19 µM) | < 0.02 µg/mL | > 4 µg/mL | > 4 µg/mL | –
CC(C)(O/N=C(\C(=O)N[C@@H]1C(=O)N2C(C(=O)[O-])=C(C[n+]3ccccc3)CS[C@H]12)c1csc(N)n1)C(=O)O [CEFTAZIDIME] | 1.1 µg/mL (≈ 2.01 µM) | 1.1 µg/mL (≈ 2.01 µM) | 4 µg/mL (≈ 7.32 µM) | 0.07 µg/mL (≈ 0.128 µM) | > 4 µg/mL | > 4 µg/mL | > 4 µg/mL | 0.12 µg/mL (≈ 0.22 µM) | 0.2 µg/mL (≈ 0.366 µM) | 3 µg/mL (≈ 5.49 µM) | > 32 µg/mL | 0.1 µg/mL (≈ 0.183 µM) | 2 µg/mL (≈ 3.66 µM) | > 32 µg/mL | 0.3 µg/mL (≈ 0.549 µM) | 1.6 µg/mL (≈ 2.93 µM) | 4 µg/mL (≈ 7.32 µM) | 0.1 µg/mL (≈ 0.183 µM) | 2 µg/mL (≈ 3.66 µM) | > 4 µg/mL | MIC (Pseudomonas aeruginosa [15]): 1 µg/mL (≈ 1.83 µM); MIC (Pseudomonas aeruginosa [22]): 1 µg/mL (≈ 1.83 µM)
C[C@@H](O)[C@H]1C(=O)N2C(C(=O)O)=C(S[C@@H]3CN[C@H](CNS(N)(=O)=O)C3)[C@H](C)[C@H]12 [DORIPENEM] | 1.2 µg/mL (≈ 2.85 µM) | 1.2 µg/mL (≈ 2.85 µM) | 0.008 µg/mL (≈ 0.019 µM) | 2 µg/mL (≈ 4.76 µM) | 0.02 µg/mL (≈ 0.0476 µM) | 4 µg/mL (≈ 9.51 µM) | 1 µg/mL (≈ 2.38 µM) | 0.03 µg/mL (≈ 0.0713 µM) | 0.5 µg/mL (≈ 1.19 µM) | 0.6 µg/mL (≈ 1.43 µM) | 0.06 µg/mL (≈ 0.143 µM) | 0.07 µg/mL (≈ 0.166 µM) | 0.008 µg/mL (≈ 0.019 µM) | 8 µg/mL (≈ 19 µM) | 0.8 µg/mL (≈ 1.9 µM) | 0.6 µg/mL (≈ 1.43 µM) | 0.04 µg/mL (≈ 0.0951 µM) | 0.06 µg/mL (≈ 0.143 µM) | < 0.008 µg/mL | > 4 µg/mL | MIC (Pseudomonas aeruginosa [15]): 0.25 µg/mL (≈ 0.595 µM); MIC (Pseudomonas aeruginosa [22]): 0.25 µg/mL (≈ 0.595 µM); Activity (Escherichia coli [23]): Active; Activity (Pseudomonas aeruginosa [26]): Active; Activity (Pseudomonas aeruginosa [24]): Active
C[C@@H](O)[C@H]1C(=O)N2C(C(=O)O)=C(SCCNC=N)C[C@H]12 [IMIPENEM ANHYDROUS] | 0.5 µg/mL (≈ 1.67 µM) | 0.4 µg/mL (≈ 1.34 µM) | 0.008 µg/mL (≈ 0.0267 µM) | 8 µg/mL (≈ 26.7 µM) | 0.01 µg/mL (≈ 0.0334 µM) | 0.4 µg/mL (≈ 1.34 µM) | 0.1 µg/mL (≈ 0.334 µM) | 0.25 µg/mL (≈ 0.835 µM) | 0.1 µg/mL (≈ 0.334 µM) | 0.2 µg/mL (≈ 0.668 µM) | 0.1 µg/mL (≈ 0.334 µM) | 0.09 µg/mL (≈ 0.301 µM) | 0.008 µg/mL (≈ 0.0267 µM) | 2 µg/mL (≈ 6.68 µM) | 0.1 µg/mL (≈ 0.334 µM) | 0.1 µg/mL (≈ 0.334 µM) | 0.1 µg/mL (≈ 0.334 µM) | 0.3 µg/mL (≈ 1 µM) | < 0.008 µg/mL | 1 µg/mL (≈ 3.34 µM) | MIC (Pseudomonas aeruginosa [15]): 1 µg/mL (≈ 3.34 µM); MIC (Pseudomonas aeruginosa [22]): 2 µg/mL (≈ 6.68 µM); Activity (Escherichia coli [23]): Active; Activity (Pseudomonas aeruginosa [27]): Active
